Reference: patent US5502164A, “Peptide compounds having therapeutic activity” (priority 1992, dated 1996)
Where a SMILES comes first, the peptide text is derived from it. [ ]: non-standard residue; d: D form. The star is where a group is joined. dNMeD = CN[C@H](CC(=O)O)C(=O)O; Nle = CCCC[C@H](N)C(=O)O; X1 = O=C(Cc1ccc(O)cc1)*

Target: T1, CCK-A receptors in rat pancreatic membranes (Rattus norvegicus, UniProt P30551)
T1 construct: CCK-A receptors in rat pancreatic membranes; from tissue; host or cells: rat pancreas (membranes)
T1 sequence (P30551 1-444): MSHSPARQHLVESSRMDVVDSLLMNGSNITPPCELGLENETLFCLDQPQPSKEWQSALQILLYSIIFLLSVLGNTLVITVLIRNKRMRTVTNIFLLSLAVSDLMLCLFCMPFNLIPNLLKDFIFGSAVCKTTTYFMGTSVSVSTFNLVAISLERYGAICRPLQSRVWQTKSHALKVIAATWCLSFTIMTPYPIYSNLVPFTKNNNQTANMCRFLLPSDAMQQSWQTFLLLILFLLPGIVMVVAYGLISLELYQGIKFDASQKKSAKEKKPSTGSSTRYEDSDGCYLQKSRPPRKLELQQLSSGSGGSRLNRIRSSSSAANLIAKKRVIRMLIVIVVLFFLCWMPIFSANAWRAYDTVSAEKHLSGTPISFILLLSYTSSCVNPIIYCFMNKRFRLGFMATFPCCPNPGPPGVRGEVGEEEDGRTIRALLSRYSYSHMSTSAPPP
Experiment: Test B: CCK-A binding
Settings: against Bolton Hunter 125I-CCK-8 and 3H-L364718, read-out: binding constant (Ki) at CCK-A receptors
Protocol: Evaluation of a test compound for its ability to bind to CCK-A receptors in rat pancreatic membranes is measured against the binding of Bolton Hunter^125 I-CCK-8 and ^3 H-L364718 to rat pancreas according to the procedures of Chang, Lotti, Chan and Kunkel (Molecular Pharmacology, 30:212-216, 1986).

CCCC[C@H](NC(=O)Cc1ccc(O)cc1)C(=O)NCC(=O)N[C@@H](Cc1c[nH]c2ccccc12)C(=O)N[C@@H](CCCC)C(=O)N(C)[C@H](CC(=O)O)C(=O)N[C@@H](Cc1ccccc1)C(N)=O [Example 49, Hpa-Ahx-Gly-Trp-Ahx-MeDAsp-Phe-NH2] (X1-[Nle]GW[Nle][dNMeD]F-NH2)
Ki: 0.03 nM
